# How the values were obtained:
# [1] = molecular target: T1, SMN-RNAP II (GFP-POLR2D) interaction (Homo sapiens, UniProt Q16637); test: Coimmunoprecipitation of SMN with GFP-POLR2D in HEK293 cells; format: cell-based; conditions: series of concentrations, 72 h
# T1 construct: endogenous in cells; host or cells: HEK293
# Experimental: (§1) HEK293 cells (ATCC, CRL-1573) were grown in DMEM (SLRI media facility) plus 10% FBS (Sigma, F1051). For analysis of SMN chemical antagonists, HEK293 cells were treated with DMSO or a series of concentrations (0, 2, 6, 10, 20, 30, 40, and 80 μM) of compound 1, compound 2 or negative compound 15 for 72 h. CRISPR-mediated SMN1 gene knockout was performed according to our previous study. Briefly, 2 μg of CRISPR/Cas9 plasmid (pCMV-Cas9-GFP), which expresses scrambled guide RNA, or guide RNA that targets the SMN1 gene exon1 (gRNA target sequence: […]) or exon3 (gRNA target sequence: […]) was transfected into HEK293 cells. Cells were sorted by BD FACSAria flow cytometry at Donnelly Center, University of Toronto 24 h after transfection, and single GFP-positive cells were seeded into a 48-well plate. The expression levels of SMN in each clone were detected by immunofluorescence. The transfection of GFP-RNase H1 R-loop-binding domain (GFP-HB) for R-loop detection into HEK293 cells was performed with the FuGENE Transfection reagent (Roche, E269A).
# The experiments were performed following procedure as previously described with minor modifications. […]
# R-loops in HEK293 cells = test: Global nuclear R-loop immunofluorescence (S9.6 antibody); format: cell-based, human; conditions: 20 μM, 72 h, S9.6 immunofluorescence
# Experimental: Global nuclear R-loop detection was ascertained via immunofluorescence using the S9.6 antibody (Kerafast, ENH001)[58]. At 24 h prior to immunofluorescence, 40,000 cells were seeded on to Poly-L-Lysine (PLL) coated coverslips. Cells were fixed using 1% formaldehyde for 15 min, washed three times with PBS, permeabilized with 0.3% Triton X-100 and washed again three times with PBS. Coverslips were blocked using 5% BSA for 1 h at room temperature and transferred to humidified chambers for antibody incubations. Coverslips were incubated with 60 μL of monoclonal S9.6 antibody (Kerafast, ENH001, 1:500) for 1 h at room temperature. After washing with PBS, cells were incubated with a secondary goat anti-mouse Alexa Fluor 488 antibody (Thermo Fisher, A11001, 1:1000) for 1 h in a dark chamber. Following further washing and DAPI staining, coverslips were mounted onto microscope slides using DAKO fluorescent mounting medium (Agilent, S302380-2) and then sealed with nail polish. […] The coverslips were processed for immunofluorescence 24 h later using the primary antibodies monoclonal S9.6 (Kerafast, ENH001, 1:500), or polyclonal anti-RNase H1 (Proteintech, 15606-1-AP, 1:500) and the secondary antibodies goat anti-mouse Alexa Fluor 488 (Thermo Fisher, A11001, 1:1000) or goat anti-rabbit Alexa Fluor 568 (Thermo Fisher, A11011, 1:1000) to quantify R-loop and confirm RNase H1 overexpression, respectively. […]
# SMN-POLR2A interaction = molecular target: T2, SMN-POLR2A interaction (Homo sapiens, UniProt Q16637); test: Coimmunoprecipitation of POLR2A with SMN in HEK293 cells; format: cell-based; conditions: 72 h; for inhibition of the interaction between SMN and POLR2A: 20 µM; for coimmunoprecipitation of POLR2A with SMN: series of concentrations
# T2 construct: endogenous in cells; host or cells: HEK293
# Experimental: as §1
# The experiments were performed following procedure as previously described with minor modifications. […] The supernatant cell lysates were sonicated with five on and off cycles of 0.3 s/0.7 s per mL and incubated for 30 min at 4 °C with 12.5–25 units/mL benzonase nuclease (Sigma, E1014) to remove RNA and DNA, followed by centrifugation at 18,400 × g for 30 min at 4 °C. The supernatant cell lysates were incubated with 2 μg of antibody overnight at 4 °C, followed by the addition of 20 μL of Dynabeads Protein G beads (Invitrogen, 10004D) for an additional incubation for 4 h. After washing with low-salt buffer (10 mM Tris-HCl, pH 7.9, 100 mM NaCl, and 0.1% Nonidet P-40) 3 times, 10 min/time, associated proteins were eluted into protein-loading buffer and separated by Tris 4–20% SDS-polyacrylamide (Mini-PROTEAN TGX Precast Protein Gel, BioRad, 4561096), and transferred to nitrocellulose or PVDF membranes (Immu-Blot PVDF, BioRad, 1620112 or 1620177). Transferred samples were immunoblotted with primary antibodies (POLR2A, Abcam, ab5408, monoclonal antibody, clone No. 4H8; SMN, Santa Cruz Biotechnology, sc-15320, polyclonal antibody; ACTB, Sigma, A5441, monoclonal antibody, clone No. AC-15; GFP, Invitrogen, G10362, rabbit monoclonal antibody; TUBB, Santa Cruz Biotechnology, sc-9104, polyclonal antibody) at a dilution of 1:2000 to 1:5000, followed by horseradish peroxidase-conjugated goat anti-mouse or mouse anti-rabbit secondary antibody (Jackson Immuno Research, 115-035-174 or 211-032-171) at a dilution of 1:10,000. Western blot detection was performed with enhanced chemiluminescence (Pierce ECL Western Blotting Substrate, Thermo Fisher, 32209). […]
# T2 sequence (Q16637 2-294 limits assumed): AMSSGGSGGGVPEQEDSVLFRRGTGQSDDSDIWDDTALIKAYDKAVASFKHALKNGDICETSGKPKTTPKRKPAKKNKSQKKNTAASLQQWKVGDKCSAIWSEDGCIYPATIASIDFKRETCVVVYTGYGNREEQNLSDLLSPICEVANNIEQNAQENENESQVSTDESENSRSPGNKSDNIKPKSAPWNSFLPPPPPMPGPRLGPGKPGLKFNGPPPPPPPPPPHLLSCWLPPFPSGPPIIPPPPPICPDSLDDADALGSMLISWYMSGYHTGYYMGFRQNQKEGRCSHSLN
# T1 sequence (Q16637 2-294 limits assumed): as above
SMILES,coimmunoprecipitation of SMN with GFP fusion protein of POLR2D [1],global nuclear R-loop levels in comparison to the DMSO controls (R-loops in HEK293 cells),inhibition of the interaction between SMN and POLR2A (SMN-POLR2A interaction),coimmunoprecipitation of POLR2A with SMN (SMN-POLR2A interaction)
"Cn1c2c(c(=N)c3c1CCC3)CCC2 [Compound 1, 4-methyl-2,3,4,5,6,7-hexahydrodicyclopenta[b,e]pyridin-8(1H)-imine]",inhibited,significantly increased,significant inhibition,disrupted
"CCCn1c2c(c(=N)c3c1CCC3)CCC2 [Compound 2, 4-propyl-2,3,4,5,6,7-hexahydrodicyclopenta[b,e]pyridin-8(1H)-imine]",inhibited,significantly increased,significant inhibition,disrupted

# Source: publication PMC9481570, “A small molecule antagonist of SMN disrupts the interaction between SMN and RNAP II” (Nature Communications, 2022)
